test system: KM12 cells; test: Cell viability assay (CellTiter-Glo) in KM12 cells; format: cell-based; details: Homo sapiens, 72 h; Table 4; KM12 cell viability, CellTiter-Glo, 3 days; read-out: IC50

Point of comparison: `O=C1CCC(N2C(=O)c3ccc(NCCN4CCN(c5ccc(C(=O)Nc6n[nH]c7ccc(Cc8cc(F)cc(F)c8)cc67)c(NC6CCOCC6)c5)CC4)cc3C2=O)C(=O)N1` (stereo not shown) [TR-232, N-(5-(3,5-Difluorobenzyl)-1H-indazol-3-yl)-4-(4-(2-((2-(2,6-dioxopiperidin-3-yl)-1,3-dioxoisoindolin-5-yl)amino)ethyl)piperazin-1-yl)-2-((tetrahydro-2H-pyran-4-yl)amino)benzamide], IC50 2.6 nM. Against it:
- O=C1CCC(N2C[C@H](c3ccc(CN4CCN(c5cccc(-c6cnc7ccc(N8CCC[C@@H]8c8cccc(F)c8)nn67)n5)CC4)cc3)OC2=O)C(=O)N1 (stereo partly drawn) [TR-229, 3-((S)-5-(4-((4-(6-(6-((R)-2-(3-Fluorophenyl)pyrrolidin-1-yl)imidazo[1,2-b]pyridazin-3-yl)pyridin-2-yl)piperazin-1-yl)methyl)phenyl)-2-oxooxazolidin-3-yl)piperidine-2,6-dione] — 20-fold higher, 50.8 nM
- O=C1CCC(N2C(=O)c3ccc(N4CC(CN5CCC(N6CCC=C(c7cnc8ccc(N9CCC[C@@H]9c9cccc(F)c9)nn78)C6)CC5)C4)cc3C2=O)C(=O)N1 (stereo partly drawn) [TR-230, 2-(2,6-Dioxopiperidin-3-yl)-5-(3-((4-(5-(6-((R)-2-(3-fluorophenyl)pyrrolidin-1-yl)imidazo[1,2-b]pyridazin-3-yl)-3,6-dihydropyridin-1(2H)-yl)piperidin-1-yl)methyl)azetidin-1-yl)isoindoline-1,3-dione] — higher, > 500 nM
- O=C1CCC(N2C(=O)c3ccc(N4CC(CN5CCN(c6ccc(C(=O)Nc7n[nH]c8ccc(Cc9cc(F)cc(F)c9)cc78)c(NC7CCOCC7)c6)CC5)C4)cc3C2=O)C(=O)N1 (stereo not shown) [TR-231, N-(5-(3,5-Difluorobenzyl)-1H-indazol-3-yl)-4-(4-((1-(2-(2,6-dioxopiperidin-3-yl)-1,3-dioxoisoindolin-5-yl)azetidin-3-yl)methyl)piperazin-1-yl)-2-((tetrahydro-2H-pyran-4-yl)amino)benzamide] — within 1.5-fold, 3 nM
- O=C1CCC(N2C(=O)c3ccc(NC(=O)CN4CCN(c5cccc(-c6cnc7ccc(N8CCC[C@@H]8c8cccc(F)c8)nn67)n5)CC4)cc3C2=O)C(=O)N1 (stereo partly drawn) [TR-233, N-(2-(2,6-Dioxopiperidin-3-yl)-1,3-dioxoisoindolin-5-yl)-2-(4-(6-(6-((R)-2-(3-fluorophenyl)pyrrolidin-1-yl)imidazo[1,2-b]pyridazin-3-yl)pyridin-2-yl)piperazin-1-yl)acetamide] — 1.9-fold higher, 5 nM
- O=C1CCC(N2C[C@H](c3cccc(CN4CCN(c5cccc(-c6cnc7ccc(N8CCC[C@@H]8c8cccc(F)c8)nn67)n5)CC4)c3)OC2=O)C(=O)N1 (stereo partly drawn) [TR-235, 3-((S)-5-(3-((4-(6-(6-((R)-2-(3-Fluorophenyl)pyrrolidin-1-yl)imidazo[1,2-b]pyridazin-3-yl)pyridin-2-yl)piperazin-1-yl)methyl)phenyl)-2-oxooxazolidin-3-yl)piperidine-2,6-dione] — within 1.5-fold, 3.3 nM
- O=C1CCC(N2C(=O)Cc3c(NCCN4CCN(c5cccc(-c6cnc7ccc(N8CCC[C@@H]8c8cccc(F)c8)nn67)n5)CC4)cccc32)C(=O)N1 (stereo partly drawn) [TR-236, 3-(4-((2-(4-(6-(6-((R)-2-(3-Fluorophenyl)pyrrolidin-1-yl)imidazo[1,2-b]pyridazin-3-yl)pyridin-2-yl)piperazin-1-yl)ethyl)amino)-2-oxoindolin-1-yl)piperidine-2,6-dione] — 38-fold higher, 99 nM
- O=C1CCC(N2C(=O)c3ccc(CN4CC(N5CCN(c6cccc(-c7cnc8ccc(N9CCC[C@@H]9c9cccc(F)c9)nn78)n6)CC5)C4)cc3C2=O)C(=O)N1 (stereo partly drawn) [TR-237, 2-(2,6-dioxopiperidin-3-yl)-5-((3-(4-(6-(6-((R)-2-(3-fluorophenyl)pyrrolidin-1-yl)imidazo[1,2-b]pyridazin-3-yl)pyridin-2-yl)piperazin-1-yl)azetidin-1-yl)methyl)isoindoline-1,3-dione] — 53-fold higher, 138 nM
- Cn1c(=O)n(C2CCC(=O)NC2=O)c2cccc(C#CCCN3CCN(c4cccc(-c5cnc6ccc(N7CCC[C@@H]7c7cccc(F)c7)nn56)n4)CC3)c21 (stereo partly drawn) [TR-239, 3-(4-(4-(4-(6-(6-((R)-2-(3-fluorophenyl)pyrrolidin-1-yl)imidazo[1,2-b]pyridazin-3-yl)pyridin-2-yl)piperazin-1-yl)but-1-yn-1-yl)-3-methyl-2-oxo-2,3-dihydro-1H-benzo[d]imidazol-1-yl)piperidine-2,6-dione] — 18-fold higher, 46 nM
- Cn1c(=O)n(C2CCC(=O)NC2=O)c2cccc(CCCN3CCN(c4cccc(-c5cnc6ccc(N7CCC[C@@H]7c7cccc(F)c7)nn56)n4)CC3)c21 (stereo partly drawn) [TR-240, 3-(4-(3-(4-(6-(6-((R)-2-(3-fluorophenyl)pyrrolidin-1-yl)imidazo[1,2-b]pyridazin-3-yl)pyridin-2-yl)piperazin-1-yl)propyl)-3-methyl-2-oxo-2,3-dihydro-1H-benzo[d]imidazol-1-yl)piperidine-2,6-dione] — 6.2-fold higher, 16 nM
- O=C1CCC(n2c(=O)n(CCN3CCN(c4cccc(-c5cnc6ccc(N7CCC[C@@H]7c7cccc(F)c7)cn56)n4)CC3)c3ccccc32)C(=O)N1 (stereo partly drawn) [TR-242, 3-(3-(2-(4-(6-(6-((R)-2-(3-fluorophenyl)pyrrolidin-1-yl)imidazo[1,2-a]pyridin-3-yl)pyridin-2-yl)piperazin-1-yl)ethyl)-2-oxo-2,3-dihydro-1H-benzo[d]imidazol-1-yl)piperidine-2,6-dione] — higher, > 500 nM
- Cn1c(=O)n(C2CCC(=O)NC2=O)c2cccc(OCCN3CCN(c4cccc(-c5cnc6ccc(N7CCC[C@@H]7c7cccc(F)c7)nn56)n4)CC3)c21 (stereo partly drawn) [TR-244, 3-(4-(2-(4-(6-(6-((R)-2-(3-fluorophenyl)pyrrolidin-1-yl)imidazo[1,2-b]pyridazin-3-yl)pyridin-2-yl)piperazin-1-yl)ethoxy)-3-methyl-2-oxo-2,3-dihydro-1H-benzo[d]imidazol-1-yl)piperidine-2,6-dione] — 110-fold higher, 298 nM
- Cn1c(=O)n(C2CCC(=O)NC2=O)c2cccc(OCCCN3CCN(c4cccc(-c5cnc6ccc(N7CCC[C@@H]7c7cccc(F)c7)nn56)n4)CC3)c21 (stereo partly drawn) [TR-245, 3-(4-(3-(4-(6-(6-((R)-2-(3-fluorophenyl)pyrrolidin-1-yl)imidazo[1,2-b]pyridazin-3-yl)pyridin-2-yl)piperazin-1-yl)propoxy)-3-methyl-2-oxo-2,3-dihydro-1H-benzo[d]imidazol-1-yl)piperidine-2,6-dione] — higher, > 500 nM
- Cn1c(=O)n(C2CCC(=O)NC2=O)c2ccc(OCCN3CCN(c4cccc(-c5cnc6ccc(N7CCC[C@@H]7c7cccc(F)c7)nn56)n4)CC3)cc21 (stereo partly drawn) [TR-246, 3-(5-(2-(4-(6-(6-((R)-2-(3-fluorophenyl)pyrrolidin-1-yl)imidazo[1,2-b]pyridazin-3-yl)pyridin-2-yl)piperazin-1-yl)ethoxy)-3-methyl-2-oxo-2,3-dihydro-1H-benzo[d]imidazol-1-yl)piperidine-2,6-dione] — 39-fold higher, 101 nM

same assay, conditions: Homo sapiens, KM12, 72 h

Point of comparison: `Cn1c(=O)n(C2CCC(=O)NC2=O)c2cccc(C#CCN3CCN(c4cccc(-c5cnc6ccc(N7CCC[C@@H]7c7cccc(F)c7)nn56)n4)CC3)c21` (stereo partly drawn) [TR-238, 3-(4-(3-(4-(6-(6-((R)-2-(3-fluorophenyl)pyrrolidin-1-yl)imidazo[1,2-b]pyridazin-3-yl)pyridin-2-yl)piperazin-1-yl)prop-1-yn-1-yl)-3-methyl-2-oxo-2,3-dihydro-1H-benzo[d]imidazol-1-yl)piperidine-2,6-dione], IC50 16 nM. Against it:
- Cn1c(=O)n(C2CCC(=O)NC2=O)c2cccc(CCCCN3CCN(c4cccc(-c5cnc6ccc(N7CCC[C@@H]7c7cccc(F)c7)nn56)n4)CC3)c21 (stereo partly drawn) [TR-241, 3-(4-(4-(4-(6-(6-((R)-2-(3-fluorophenyl)pyrrolidin-1-yl)imidazo[1,2-b]pyridazin-3-yl)pyridin-2-yl)piperazin-1-yl)butyl)-3-methyl-2-oxo-2,3-dihydro-1H-benzo[d]imidazol-1-yl)piperidine-2,6-dione] — 1.8-fold lower, 9 nM
